The source of these data is ChEMBL document CHEMBL1201862, “PubChem BioAssay data set” (2004).

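Values below derive from 48-hour exposures of cells grown in 96-well plates, with endpoints linearly interpolated between the two concentrations bracketing the appropriate inhibition level. GI50: concentration for 50% inhibition of growth.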 Active and inactive are the calls of the source. Rule as the data show it: active = GI50 up to about 1.1 µM and inactive = higher. Bounds are passed on as bounds.

Among the test systems are A549; BT-549; EKVX; HCT-15; HL-60; HOP-62; Hs-578T; M14; MCF7; MDA-MB-231; NCI-H522; OVCAR-5; PC-3; RXF 393; SF-295; SK-OV-3; SW-620; UACC-62; HCC 2998.
Assay in all cases: NCI anticancer screen, dose series, 48 h

For `CN1CC2CN(Cc3ccccc3)CCN2c2cccnc21` (configuration not stated), the GI50 in the assay with A549 is > 100 µM (inactive); with BT-549, 33.3 µM (inactive); in the assay on EKVX, 53 µM (inactive); with HCT-15, 28.6 µM; with HL-60 it was 29 µM (inactive); in the assay with HOP-62, > 100 µM (inactive). The GI50 in the assay with Hs-578T was 40.3 µM (inactive); in the assay with M14, 60.7 µM (inactive); with MCF7 it was 39.9 µM (inactive); with MDA-MB-231 it was 97.1 µM (inactive); in the assay on NCI-H522, 28.8 µM (inactive); with OVCAR-5 it was > 100 µM (inactive). The GI50 is 45.9 µM (inactive) in the assay on PC-3; > 100 µM (inactive) in the assay with RXF 393; 89.5 µM (inactive) in the assay with SF-295; > 100 µM (inactive) in the assay on SK-OV-3; 35.2 µM (inactive) in the assay with SW-620; 68.4 µM (inactive) with UACC-62.

In the case of `COC(=O)/C=C/c1ccc2c(c1)[C@H](C(=O)OC)[C@@H](c1ccc(O)cc1)O2`, the GI50 in the assay with A549 is 34.2 µM (inactive); with BT-549 it was 16.8 µM (inactive); with EKVX, 40 µM (inactive); in the assay on HCC 2998, 10.9 µM (inactive); in the assay with HCT-15 it was 5.02 µM; with HL-60 it was 6.27 µM (inactive). Also, the GI50 in the assay on HOP-62 is 35.8 µM (inactive); with Hs-578T, 31.2 µM (inactive); with M14, 10.5 µM (inactive); with MCF7, 9.02 µM (inactive); with MDA-MB-231, 14.8 µM (inactive); in the assay on NCI-H522, 21.4 µM (inactive). The GI50 is > 100 µM (inactive) in the assay with OVCAR-5; 23.3 µM (inactive) with PC-3; 31.4 µM (inactive) with SF-295; 69 µM (inactive) in the assay on SK-OV-3; 6.08 µM (inactive) in the assay on SW-620; 20 µM (inactive) in the assay on UACC-62.

Turning to `C[N+]1(C)CCOC(O)(c2ccccc2)C1` (configuration not stated), the GI50 with A549 was > 100 µM (inactive); with BT-549 it was > 100 µM (inactive); in the assay with EKVX, > 100 µM (inactive); in the assay with HCT-15, above 100 µM; in the assay on HL-60, > 100 µM (inactive); in the assay on HOP-62 it was > 100 µM (inactive). Also, the GI50 with Hs-578T, in the assay on M14, in the assay on MCF7, in the assay on MDA-MB-231, with NCI-H522 and in the assay on OVCAR-5 was > 100 µM (inactive) each time. In addition, the GI50 with PC-3, in the assay on RXF 393, in the assay on SF-295, with SK-OV-3, in the assay on SW-620 and with UACC-62 was > 100 µM (inactive) each time.

Take `CCOC(=O)/C=C(/OCC)[C@@H]1C(C(=O)c2ccc(Cl)cc2)[C@H]1/C(=C\C(=O)OCC)OCC` (some centres not stated): the GI50 in the assay on A549 was > 100 µM (inactive); in the assay on BT-549 it was > 100 µM (inactive); in the assay on EKVX it was > 100 µM (inactive); in the assay with HCT-15, above 100 µM; with HL-60, 5.87 µM (inactive); in the assay on HOP-62, > 100 µM (inactive). The GI50 in the assay with Hs-578T is > 100 µM (inactive); in the assay on M14, > 100 µM (inactive); with MCF7 it was > 100 µM (inactive); in the assay on MDA-MB-231 it was > 44.4 µM (inactive); with NCI-H522 it was > 45.2 µM (inactive); in the assay with OVCAR-5, > 100 µM (inactive). Also, the GI50 was > 30.5 µM (inactive) with PC-3; 96.8 µM (inactive) with RXF 393; > 33.8 µM (inactive) in the assay with SF-295; > 100 µM (inactive) with SK-OV-3; > 100 µM (inactive) in the assay on SW-620; > 30.7 µM (inactive) with UACC-62.

For the compound `COC(=O)[C@H](CCSC)NC(=O)c1ccc(CNC(=O)/C=C/c2cccc(Oc3ccccc3)c2)cc1`, the GI50 in the assay with A549 was 98.4 µM (inactive); in the assay with BT-549, > 69.7 µM (inactive); with EKVX, 67.3 µM (inactive); in the assay with HCC 2998 it was 28.5 µM (inactive); in the assay on HCT-15 it was above 62.8 µM; with HOP-62 it was > 100 µM (inactive). For the same compound, the GI50 in the assay on Hs-578T is 59.2 µM (inactive); in the assay on M14 it was 13.5 µM (inactive); in the assay with MCF7 it was 38.6 µM (inactive); in the assay with MDA-MB-231, 21.3 µM (inactive); in the assay with NCI-H522 it was 25.8 µM (inactive); in the assay with OVCAR-5, > 100 µM (inactive). The GI50 in the assay on PC-3 was > 75 µM (inactive); in the assay on RXF 393, 16.7 µM (inactive); with SF-295 it was > 78.5 µM (inactive); in the assay on SK-OV-3, > 100 µM (inactive); with SW-620, 77.4 µM (inactive); in the assay on UACC-62, 18.2 µM (inactive).

For the compound `CCCN1C(=O)/C(=C\c2ccc(OC)c(OC)c2)S/C1=N\c1ccccc1`, the GI50 in the assay with A549 is > 100 µM (inactive); in the assay on BT-549, 87.9 µM (inactive); in the assay with EKVX, 67.9 µM (inactive); in the assay on HCC 2998, > 100 µM (inactive); in the assay on HCT-15, above 100 µM; with HL-60, > 100 µM (inactive). In addition, the GI50 in the assay with HOP-62 is 17.6 µM (inactive); in the assay with Hs-578T, 44.4 µM (inactive); in the assay with M14, > 100 µM (inactive); in the assay on MCF7, > 100 µM (inactive); with MDA-MB-231 it was > 100 µM (inactive); in the assay on NCI-H522, > 100 µM (inactive). The GI50 is > 100 µM (inactive) with OVCAR-5; > 100 µM (inactive) in the assay on PC-3; 24.2 µM (inactive) in the assay on SF-295; 27.9 µM (inactive) in the assay on SK-OV-3; > 100 µM (inactive) with SW-620; > 100 µM (inactive) in the assay on UACC-62.

For the compound `Oc1cc(-c2cccc(C(F)(F)F)c2)nc2cc3c(cc12)OCO3`, the GI50 in the assay with A549 was 3.97 µM (inactive); in the assay with BT-549, 1.24 µM (inactive); with EKVX, 1.5 µM (inactive); in the assay with HCC 2998, 3.44 µM (inactive); in the assay on HCT-15, 1.38 µM; with HL-60, 0.246 µM (active). The GI50 in the assay on HOP-62 was 1.83 µM (inactive); in the assay on Hs-578T, 1.66 µM (inactive); with M14, 1.76 µM (inactive); with MCF7 it was 2.23 µM (inactive); in the assay on MDA-MB-231, 1.87 µM (inactive); in the assay on NCI-H522, 0.536 µM (active). For the same compound, the GI50 in the assay on OVCAR-5 is 1.49 µM (inactive); in the assay with PC-3, 0.365 µM (active); in the assay on SK-OV-3 it was 2.26 µM (inactive); in the assay on SW-620 it was 2.21 µM (inactive); with UACC-62, 1.51 µM (inactive).

`CCCN(CCC)C1CCc2c(ccc3cc[nH]c23)C1` (configuration not stated): the GI50 in the assay on A549 was > 100 µM (inactive); in the assay with BT-549, > 100 µM (inactive); with EKVX, > 100 µM (inactive); in the assay on HCC 2998, 23 µM (inactive); with HCT-15, 48.1 µM; with HOP-62, > 100 µM (inactive). For the same compound, the GI50 was > 100 µM (inactive) with Hs-578T; 17.7 µM (inactive) in the assay on M14; 77.3 µM (inactive) with MCF7; 41.3 µM (inactive) in the assay with MDA-MB-231; > 100 µM (inactive) in the assay with NCI-H522; > 100 µM (inactive) in the assay on OVCAR-5. The GI50 in the assay with PC-3 was 35 µM (inactive); with RXF 393, > 100 µM (inactive); in the assay with SF-295, > 100 µM (inactive); in the assay on SK-OV-3, > 100 µM (inactive); with SW-620, > 100 µM (inactive); in the assay with UACC-62 it was 50.9 µM (inactive).

Regarding `S=C1/C(=N/c2ccccc2)N(c2ccccc2)/C(=N\c2cccc[n+]2Cc2ccccc2)N1c1ccccc1`, the GI50 is 20.9 µM (inactive) in the assay with A549; 14.3 µM (inactive) with BT-549; 19.7 µM (inactive) in the assay with EKVX; 13.9 µM (inactive) in the assay on HCC 2998; 21.4 µM in the assay on HCT-15; 13 µM (inactive) in the assay with HOP-62. Also, the GI50 in the assay on Hs-578T is 33.9 µM (inactive); in the assay with M14, 12.9 µM (inactive); in the assay on MCF7 it was 18.9 µM (inactive); in the assay with MDA-MB-231, 14.9 µM (inactive); with NCI-H522 it was 13.3 µM (inactive); in the assay on OVCAR-5, 15.9 µM (inactive). Also, the GI50 is 12.1 µM (inactive) in the assay on PC-3; 13.4 µM (inactive) with RXF 393; 13.4 µM (inactive) with SF-295; 21.7 µM (inactive) with SK-OV-3; 13.9 µM (inactive) in the assay on SW-620; 11.9 µM (inactive) in the assay with UACC-62.

Take `C[C@H]1CC[C@@]2(OC1)O[C@H]1C[C@H]3[C@@H]4CC[C@@H]5C[C@@H](OC6OC(CO)C(O)C(O)C6OC6OC(CO)C(O)C(O)C6O)CC[C@]5(C)[C@H]4CC[C@]3(C)[C@H]1[C@@H]2C` (some centres not stated): the GI50 was 2 µM (inactive) in the assay with A549; 2.35 µM (inactive) with BT-549; 2.08 µM (inactive) with EKVX; 2.02 µM (inactive) in the assay on HCC 2998; 1.99 µM with HCT-15; 0.889 µM (active) with HL-60. Also, the GI50 in the assay on HOP-62 was 2.25 µM (inactive); with Hs-578T, 2.44 µM (inactive); in the assay on M14, 2.06 µM (inactive); in the assay on MCF7 it was 2.1 µM (inactive); in the assay on MDA-MB-231 it was 2.09 µM (inactive); in the assay with NCI-H522, 2.71 µM (inactive). The GI50 is 1.81 µM (inactive) in the assay with OVCAR-5; 2.13 µM (inactive) with PC-3; 2.22 µM (inactive) in the assay with SF-295; 1.69 µM (inactive) in the assay on SK-OV-3; 1.77 µM (inactive) in the assay with SW-620; 2.4 µM (inactive) in the assay on UACC-62.

`COc1cc([C@H]2c3cc(O)c(OC)cc3C[C@]3(O)[C@@H]2CO[C@@H]3O)ccc1O`: the GI50 is > 100 µM (inactive) with A549; > 100 µM (inactive) in the assay with BT-549; > 100 µM (inactive) with EKVX; > 100 µM (inactive) in the assay on HCC 2998; above 100 µM with HCT-15; > 100 µM (inactive) with HL-60. The GI50 with HOP-62, with Hs-578T, with M14, in the assay with MCF7, in the assay with MDA-MB-231 and with NCI-H522 was > 100 µM (inactive) each time. Besides, the GI50 in the assay on OVCAR-5, with PC-3, in the assay with SF-295, in the assay on SK-OV-3, in the assay with SW-620 and with UACC-62 was > 100 µM (inactive) throughout.
